Each compound was assayed on HCC1143 (assay: drug sensitivity score (DSS), CellTox Green (DSS (AUC-based score)); higher = stronger drug effect (viability inhibition or cytotoxicity); extreme values may be limits of the assay). Conditions: incubation time: 72 h.
Method in brief: (§1)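 Breast cancer cells were seeded into 384-well plates containing compound at 5 concentrations in 10-fold steps over a compound-specific 10,000-fold range and incubated 72 h. After CellTox Green and CellTiter-Glo readings, each plate was normalised to 0.1 % DMSO and a positive kill control. The drug sensitivity score rests on the area under the fitted dose-response curve.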

| SMILES | drug sensitivity score |
| --- | --- |
| CC[C@H](Nc1ncnc2[nH]cnc12)c1nc2cccc(F)c2c(=O)n1-c1ccccc1 [GS-1101] | 0 |
| CC1=C(/C=C/C(C)=C/C=C/C(C)=C/C(=O)O)C(C)(C)CCC1 [Tretinoin] | 0 |
| Nc1ccccc1NC(=O)c1ccc(CNC(=O)OCc2cccnc2)cc1 [Entinostat] | 0 |
| C=CC(=O)Nc1cc2c(Nc3ccc(F)c(Cl)c3)ncnc2cc1OCCCN1CCOCC1 [Canertinib] | 0 |
| CCCCC(=O)OCC(=O)[C@]1(O)Cc2c(O)c3c(c(O)c2[C@@H](O[C@H]2C[C@H](NC(=O)C(F)(F)F)[C@H](O)[C@H](C)O2)C1)C(=O)c1c(OC)cccc1C3=O [Valrubicin] | 0 |

What follows are compounds tested on HCC1599 in the same assay as above. Conditions: incubation time: 72 h.
Method in brief: as §1

| SMILES | drug sensitivity score |
| --- | --- |
| CC[C@H](Nc1ncnc2[nH]cnc12)c1nc2cccc(F)c2c(=O)n1-c1ccccc1 [GS-1101] | 0 |
| CC1=C(/C=C/C(C)=C/C=C/C(C)=C/C(=O)O)C(C)(C)CCC1 [Tretinoin] | 0 |
| Nc1ccccc1NC(=O)c1ccc(CNC(=O)OCc2cccnc2)cc1 [Entinostat] | 0 |
| C=CC(=O)Nc1cc2c(Nc3ccc(F)c(Cl)c3)ncnc2cc1OCCCN1CCOCC1 [Canertinib] | 0 |
| CCCCC(=O)OCC(=O)[C@]1(O)Cc2c(O)c3c(c(O)c2[C@@H](O[C@H]2C[C@H](NC(=O)C(F)(F)F)[C@H](O)[C@H](C)O2)C1)C(=O)c1c(OC)cccc1C3=O [Valrubicin] | 0 |

These compounds were tested on HDQ-P1 in the same assay as above. Conditions: incubation time: 72 h.
Method in brief: as §1

| SMILES | drug sensitivity score |
| --- | --- |
| CC[C@H](Nc1ncnc2[nH]cnc12)c1nc2cccc(F)c2c(=O)n1-c1ccccc1 [GS-1101] | 0 |
| CC1=C(/C=C/C(C)=C/C=C/C(C)=C/C(=O)O)C(C)(C)CCC1 [Tretinoin] | 0 |
| Nc1ccccc1NC(=O)c1ccc(CNC(=O)OCc2cccnc2)cc1 [Entinostat] | 0 |
| C=CC(=O)Nc1cc2c(Nc3ccc(F)c(Cl)c3)ncnc2cc1OCCCN1CCOCC1 [Canertinib] | 3.34 |
| CCCCC(=O)OCC(=O)[C@]1(O)Cc2c(O)c3c(c(O)c2[C@@H](O[C@H]2C[C@H](NC(=O)C(F)(F)F)[C@H](O)[C@H](C)O2)C1)C(=O)c1c(OC)cccc1C3=O [Valrubicin] | 0 |

Each compound was assayed on HCC1937 in the same assay as above. Conditions: incubation time: 72 h.
Method in brief: as §1

| SMILES | drug sensitivity score |
| --- | --- |
| CC[C@H](Nc1ncnc2[nH]cnc12)c1nc2cccc(F)c2c(=O)n1-c1ccccc1 [GS-1101] | 0 |
| CC1=C(/C=C/C(C)=C/C=C/C(C)=C/C(=O)O)C(C)(C)CCC1 [Tretinoin] | 0 |
| Nc1ccccc1NC(=O)c1ccc(CNC(=O)OCc2cccnc2)cc1 [Entinostat] | 1.35 |
| C=CC(=O)Nc1cc2c(Nc3ccc(F)c(Cl)c3)ncnc2cc1OCCCN1CCOCC1 [Canertinib] | 0 |
| CCCCC(=O)OCC(=O)[C@]1(O)Cc2c(O)c3c(c(O)c2[C@@H](O[C@H]2C[C@H](NC(=O)C(F)(F)F)[C@H](O)[C@H](C)O2)C1)C(=O)c1c(OC)cccc1C3=O [Valrubicin] | 0 |

What follows are compounds tested on MDA-MB-453 in the same assay as above. Conditions: incubation time: 72 h.
Method in brief: as §1

| SMILES | drug sensitivity score |
| --- | --- |
| CC[C@H](Nc1ncnc2[nH]cnc12)c1nc2cccc(F)c2c(=O)n1-c1ccccc1 [GS-1101] | 0 |
| CC1=C(/C=C/C(C)=C/C=C/C(C)=C/C(=O)O)C(C)(C)CCC1 [Tretinoin] | 0 |
| Nc1ccccc1NC(=O)c1ccc(CNC(=O)OCc2cccnc2)cc1 [Entinostat] | 0 |
| C=CC(=O)Nc1cc2c(Nc3ccc(F)c(Cl)c3)ncnc2cc1OCCCN1CCOCC1 [Canertinib] | 0 |
| CCCCC(=O)OCC(=O)[C@]1(O)Cc2c(O)c3c(c(O)c2[C@@H](O[C@H]2C[C@H](NC(=O)C(F)(F)F)[C@H](O)[C@H](C)O2)C1)C(=O)c1c(OC)cccc1C3=O [Valrubicin] | 0 |

What follows are compounds tested on CAL-148 in the same assay as above. Conditions: incubation time: 72 h.
Method in brief: as §1

| SMILES | drug sensitivity score |
| --- | --- |
| CC[C@H](Nc1ncnc2[nH]cnc12)c1nc2cccc(F)c2c(=O)n1-c1ccccc1 [GS-1101] | 0 |
| CC1=C(/C=C/C(C)=C/C=C/C(C)=C/C(=O)O)C(C)(C)CCC1 [Tretinoin] | 0 |
| Nc1ccccc1NC(=O)c1ccc(CNC(=O)OCc2cccnc2)cc1 [Entinostat] | 1.86 |
| C=CC(=O)Nc1cc2c(Nc3ccc(F)c(Cl)c3)ncnc2cc1OCCCN1CCOCC1 [Canertinib] | 0 |
| CCCCC(=O)OCC(=O)[C@]1(O)Cc2c(O)c3c(c(O)c2[C@@H](O[C@H]2C[C@H](NC(=O)C(F)(F)F)[C@H](O)[C@H](C)O2)C1)C(=O)c1c(OC)cccc1C3=O [Valrubicin] | 10.8 |

The compounds below were run on MDA-MB-468 in the same assay as above. Conditions: incubation time: 72 h.
Method in brief: as §1

| SMILES | drug sensitivity score |
| --- | --- |
| CC[C@H](Nc1ncnc2[nH]cnc12)c1nc2cccc(F)c2c(=O)n1-c1ccccc1 [GS-1101] | 3.82 |
| CC1=C(/C=C/C(C)=C/C=C/C(C)=C/C(=O)O)C(C)(C)CCC1 [Tretinoin] | 0 |
| Nc1ccccc1NC(=O)c1ccc(CNC(=O)OCc2cccnc2)cc1 [Entinostat] | 11.1 |
| C=CC(=O)Nc1cc2c(Nc3ccc(F)c(Cl)c3)ncnc2cc1OCCCN1CCOCC1 [Canertinib] | 5.52 |
| CCCCC(=O)OCC(=O)[C@]1(O)Cc2c(O)c3c(c(O)c2[C@@H](O[C@H]2C[C@H](NC(=O)C(F)(F)F)[C@H](O)[C@H](C)O2)C1)C(=O)c1c(OC)cccc1C3=O [Valrubicin] | 5.83 |

Each compound was assayed on Hs578T in the same assay as above. Conditions: incubation time: 72 h.
Method in brief: as §1

| SMILES | drug sensitivity score |
| --- | --- |
| CC[C@H](Nc1ncnc2[nH]cnc12)c1nc2cccc(F)c2c(=O)n1-c1ccccc1 [GS-1101] | 0 |
| CC1=C(/C=C/C(C)=C/C=C/C(C)=C/C(=O)O)C(C)(C)CCC1 [Tretinoin] | 7.23 |
| Nc1ccccc1NC(=O)c1ccc(CNC(=O)OCc2cccnc2)cc1 [Entinostat] | 0 |
| C=CC(=O)Nc1cc2c(Nc3ccc(F)c(Cl)c3)ncnc2cc1OCCCN1CCOCC1 [Canertinib] | 6.15 |
| CCCCC(=O)OCC(=O)[C@]1(O)Cc2c(O)c3c(c(O)c2[C@@H](O[C@H]2C[C@H](NC(=O)C(F)(F)F)[C@H](O)[C@H](C)O2)C1)C(=O)c1c(OC)cccc1C3=O [Valrubicin] | 0.113 |

What follows are compounds tested on BT-549 in the same assay as above. Conditions: incubation time: 72 h.
Method in brief: as §1

| SMILES | drug sensitivity score |
| --- | --- |
| CC[C@H](Nc1ncnc2[nH]cnc12)c1nc2cccc(F)c2c(=O)n1-c1ccccc1 [GS-1101] | 0 |
| CC1=C(/C=C/C(C)=C/C=C/C(C)=C/C(=O)O)C(C)(C)CCC1 [Tretinoin] | 0 |
| Nc1ccccc1NC(=O)c1ccc(CNC(=O)OCc2cccnc2)cc1 [Entinostat] | 0 |
| C=CC(=O)Nc1cc2c(Nc3ccc(F)c(Cl)c3)ncnc2cc1OCCCN1CCOCC1 [Canertinib] | 0.986 |
| CCCCC(=O)OCC(=O)[C@]1(O)Cc2c(O)c3c(c(O)c2[C@@H](O[C@H]2C[C@H](NC(=O)C(F)(F)F)[C@H](O)[C@H](C)O2)C1)C(=O)c1c(OC)cccc1C3=O [Valrubicin] | 0 |

What follows are compounds tested on DU-4475 in the same assay as above. Conditions: incubation time: 72 h.
Method in brief: as §1

| SMILES | drug sensitivity score |
| --- | --- |
| CC[C@H](Nc1ncnc2[nH]cnc12)c1nc2cccc(F)c2c(=O)n1-c1ccccc1 [GS-1101] | 0 |
| CC1=C(/C=C/C(C)=C/C=C/C(C)=C/C(=O)O)C(C)(C)CCC1 [Tretinoin] | 0 |
| Nc1ccccc1NC(=O)c1ccc(CNC(=O)OCc2cccnc2)cc1 [Entinostat] | 0 |
| C=CC(=O)Nc1cc2c(Nc3ccc(F)c(Cl)c3)ncnc2cc1OCCCN1CCOCC1 [Canertinib] | 0 |
| CCCCC(=O)OCC(=O)[C@]1(O)Cc2c(O)c3c(c(O)c2[C@@H](O[C@H]2C[C@H](NC(=O)C(F)(F)F)[C@H](O)[C@H](C)O2)C1)C(=O)c1c(OC)cccc1C3=O [Valrubicin] | 0 |

What follows are compounds tested on MFM-223 in the same assay as above. Conditions: incubation time: 72 h.
Method in brief: as §1

| SMILES | drug sensitivity score |
| --- | --- |
| CC[C@H](Nc1ncnc2[nH]cnc12)c1nc2cccc(F)c2c(=O)n1-c1ccccc1 [GS-1101] | 0 |
| CC1=C(/C=C/C(C)=C/C=C/C(C)=C/C(=O)O)C(C)(C)CCC1 [Tretinoin] | 0 |
| Nc1ccccc1NC(=O)c1ccc(CNC(=O)OCc2cccnc2)cc1 [Entinostat] | 1.09 |
| C=CC(=O)Nc1cc2c(Nc3ccc(F)c(Cl)c3)ncnc2cc1OCCCN1CCOCC1 [Canertinib] | 2.12 |
| CCCCC(=O)OCC(=O)[C@]1(O)Cc2c(O)c3c(c(O)c2[C@@H](O[C@H]2C[C@H](NC(=O)C(F)(F)F)[C@H](O)[C@H](C)O2)C1)C(=O)c1c(OC)cccc1C3=O [Valrubicin] | 0 |

What follows are compounds tested on BT-474 in the same assay as above. Conditions: incubation time: 72 h.
Method in brief: as §1

| SMILES | drug sensitivity score |
| --- | --- |
| CC[C@H](Nc1ncnc2[nH]cnc12)c1nc2cccc(F)c2c(=O)n1-c1ccccc1 [GS-1101] | 0 |
| CC1=C(/C=C/C(C)=C/C=C/C(C)=C/C(=O)O)C(C)(C)CCC1 [Tretinoin] | 0.87 |
| Nc1ccccc1NC(=O)c1ccc(CNC(=O)OCc2cccnc2)cc1 [Entinostat] | 0 |
| C=CC(=O)Nc1cc2c(Nc3ccc(F)c(Cl)c3)ncnc2cc1OCCCN1CCOCC1 [Canertinib] | 3.65 |
| CCCCC(=O)OCC(=O)[C@]1(O)Cc2c(O)c3c(c(O)c2[C@@H](O[C@H]2C[C@H](NC(=O)C(F)(F)F)[C@H](O)[C@H](C)O2)C1)C(=O)c1c(OC)cccc1C3=O [Valrubicin] | 0 |

The compounds below were run on MDA-MB-231 in the same assay as above. Conditions: incubation time: 72 h.
Method in brief: as §1

| SMILES | drug sensitivity score |
| --- | --- |
| CC[C@H](Nc1ncnc2[nH]cnc12)c1nc2cccc(F)c2c(=O)n1-c1ccccc1 [GS-1101] | 4.13 |
| CC1=C(/C=C/C(C)=C/C=C/C(C)=C/C(=O)O)C(C)(C)CCC1 [Tretinoin] | 3.64 |
| Nc1ccccc1NC(=O)c1ccc(CNC(=O)OCc2cccnc2)cc1 [Entinostat] | 1.91 |
| C=CC(=O)Nc1cc2c(Nc3ccc(F)c(Cl)c3)ncnc2cc1OCCCN1CCOCC1 [Canertinib] | 3.46 |
| CCCCC(=O)OCC(=O)[C@]1(O)Cc2c(O)c3c(c(O)c2[C@@H](O[C@H]2C[C@H](NC(=O)C(F)(F)F)[C@H](O)[C@H](C)O2)C1)C(=O)c1c(OC)cccc1C3=O [Valrubicin] | 0 |

What follows are compounds tested on MDA-MB-436 in the same assay as above. Conditions: incubation time: 72 h.
Method in brief: as §1

| SMILES | drug sensitivity score |
| --- | --- |
| CC[C@H](Nc1ncnc2[nH]cnc12)c1nc2cccc(F)c2c(=O)n1-c1ccccc1 [GS-1101] | 0 |
| CC1=C(/C=C/C(C)=C/C=C/C(C)=C/C(=O)O)C(C)(C)CCC1 [Tretinoin] | 0 |
